Laboratory results as given in paper PMC12030059, “Mechanistic Advances in the Therapeutic Application of Bixin for Lung Inflammation In Vitro and In Vivo” (Pharmaceuticals, 2025).

Columns and labels:
[1] = PAMPA-GIT permeability assay; assay type: in vitro ADME; conditions: for Papp: read-out: Experimental Pe; for Experimental Fa: absorbed fraction; for Classification (intestinal permeability): by absorbed fraction
From the text: The parallel artificial membrane permeability assay (PAMPA) utilizes a 96-well plate system in a “sandwich” format, where one plate is positioned above another (PAMPA). The upper plate, known as the donor compartment, contains the compounds (test or control) dissolved in a buffered solution. […] The lipid composition of the PVDF filter varies depending on the type of permeability test. For gastrointestinal tract (GIT) permeability assessments, L-α-soy phosphatidylcholine in dodecane is used. Optical density values are measured at specified wavelengths for each compound and compared against controls. For GIT permeability, the absorbed fraction (Fa%) and permeability (Pe) are determined. […] Compounds for these assays were diluted from a 10 mM stock solution. These assays were conducted using a 1 mg/mL stock solution per compound.

[2] = ref C. Zhu et al. Eur. J. Med. Chem. 37 (2002) 399–407 [22], cited from earlier work
[3] = L-α-soy phosphatidylcholine in dodecane

Papp [1, 3] [×10⁻⁶ cm/s]	Experimental Fa [1] [%]	Classification (intestinal permeability) [1]	Experimental Pe [1, 3]	Compound	Literature Fa ([2]; absorbed fraction) [%]	Literature Pe ([2]; artificial membrane permeability)
25.2	99.99	High (high (70–100%))	–	O=c1ccc2ccccc2o1 [Coumarin, coumarin]	–	–
0.53	18.19	Low (low (0–29%))	–	CO/N=C(\C(=O)N[C@@H]1C(=O)N2C(C(=O)O)=C(CSc3nc(=O)c(=O)[nH]n3C)CS[C@H]12)c1csc(N)n1 [Ceftriaxone, ceftriaxone]	1	0.1 10^−6 cm/s
1.56	–	Medium (medium (30–69%))	–	CCn1cc(C(=O)O)c(=O)c2cc(F)c(N3CCNCC3)cc21 [Norfloxacin, norfloxacin]	–	–
–	12.64	–	0.36 10^−6 cm/s	Nc1nc2c(ncn2COCCO)c(=O)[nH]1 [Acyclovir, acyclovir]	–	–
